The values below are quoted from earlier work in patent publication US11840582B2, “Synthesis method of cyclosporine derivatives” (Peking University Shenzhen Graduate School, priority 2021, dated 2023).

Molecules are shown by their SMILES. Non-standard residues stand in square brackets, D forms with d. Residues, ends and D or L forms follow the SMILES beside them. NMeThr(4R-Me,4-(CH2)6NHAc) = CN[C@H](C(=O)O)[C@H](O)[C@H](C)CCCCCCNC(C)=O; NMeL = CN[C@@H](CC(C)C)C(=O)O; NMeV = CN[C@H](C(=O)O)C(C)C; dNMeA = CN[C@H](C)C(=O)O; Abu = CC[C@H](N)C(=O)O

For orientation: IC50 means the concentration at which inhibition is half-maximal.

The test system of the data set is cyclophilin proteins (CyP), including cyclophilin protein A, cyclophilin protein B, cyclophilin protein H and cyclophilin protein G.

In the case of `CC[C@@H]1NC(=O)[C@H]([C@H](O)[C@H](C)CCCCCCNC(C)=O)N(C)C(=O)[C@H](C(C)C)N(C)C(=O)[C@H](CC(C)C)N(C)C(=O)[C@H](CC(C)C)N(C)C(=O)[C@@H](C)NC(=O)[C@H](C)NC(=O)[C@H](CC(C)C)N(C)C(=O)[C@H](C(C)C)NC(=O)[C@H](CC(C)C)N(C)C(=O)[C@@H](C)N(C)C1=O` [CRV431] (cyclo(A[dA][NMeL][NMeL][NMeV][NMeThr(4R-Me,4-(CH2)6NHAc)][Abu][dNMeA][NMeL]V[NMeL])), the IC50 is 1 to 7 nM and the “potency relative to cyclosporine A inhibiting the activity of cyclophilin protein” value was ≤ 13 times.
